# Marks after values point to notes of the source that are not given here.
# Legend:
# [1] = Pharmacokinetics in serum of mice after single intravenous injection (LC-MS/MS); type: in vivo, C57BL/6J mice; conditions: for half-life: 1000 mg/kg i.v. single injection, noncompartmental, naive pooled; for AUC: 0 to 240 min sampling
# Method: (§1) Six- to eight-week-old male C57BL/6J (20–25 g) mice were purchased from Sino-British SIPPR/BK Lab Animal Ltd (Shanghai, China). After ad libitum feeding for one week, the mice were randomly divided into three groups: the control group (n = 3, saline treated), the PEG-car treated group (n = 3) and the L-carnosine treated group (n = 3). Hereof, each mouse was respectively injected intravenously (i.v.) with saline, PEG-car (1000 mg/kg) or L-carnosine (1000 mg/kg) through the tail vein. The mice were anaesthetized by the inhalation of isoflurane during the injection. Blood samples were collected in EDTA tubes by cardiac puncture at 0, 5, 15, 30, 60, 120, 240 min after the administration of PEG-car or L-carnosine. Sera were obtained by centrifugation of the blood sample at 6800 g for 6 min at 4 ℃. Right after sacrifice, the mice were perfused by phosphate-buffered saline to remove the remaining blood. The brains and kidneys were carefully isolated thereafter. The tissues were stored at − 80 ℃and the sera were stored at − 20 ℃ untill use.
# (§2) PEG-car or L-carnosine levels in serum and tissues were determined by liquid chromatography tandem-mass spectrometry (LC-MS/MS). Warfarin (Sigma-Aldrich, St. Louis, MO, USA) was used as internal standard (IS). The entire procedure for sample and standard preparation was carried out on ice. An aliquot of 20 µL serum or homogenized 40 mg tissue were pipetted into centrifuge tube and then 400 µL methanol was added for protein precipitation. After spiking the IS (40 ng for serum and 4 ng for kidney), the samples were vortexed for 1 min and then centrifuged at 18,000 g for 7 min at 4 ℃. The supernatant was used for the assay. The calibration curves were prepared by spiking the known concentrations of PEG-car or L-carnosine into serum or tissue homogenates obtained from untreated mice.
# (§3) The concentrations were measured by a UHPLC system (Shimadzu LC-40D XS, Japan) coupled with electrospray ionization (ESI) and triple quadrupole-ion trap mass spectrometry (AB SCIEX QTRAP® 6500+, Singapore). PEG-car was performed in ACQUITY UPLC BEH C18 column (2.1 mm×50 mm, 1.7 μm, Waters, USA) with a 0.6 mL/min flow rate of mobile phase using gradient elution of ultrapure water (2mM Ammonium acetate (Sinopharm Chemical Reagent Co., Ltd, Shanghai, China) containing 0.1% formic acid, eluent A) and acetonitrile (2mM Ammonium formate (Sinopharm Chemical Reagent Co., Ltd, Shanghai, China) containing 0.1% formic acid, eluent B). The solvent gradient was changed according to the following program: 0–0.01 min 10%B, 0.01–0.6 min 10-90%B, 0.6–1.2 min 90%B, 1.2–1.21 min 90%-10%B, 1.21–1.5 min 10%B. L-carnosine was performed in ACQUITY UPLC BEH Amide column (2.1 mm×50 mm, 1.7 μm, Waters, USA) with a 0.6 mL/min flow rate of mobile phase using gradient elution of ultrapure water (2mM Ammonium acetate containing 0.1% formic acid, eluent A) and acetonitrile (2mM Ammonium formate containing 0.1% formic acid, eluent B). The solvent gradient was as follows: 0–0.01 min 90%B, 0.01–0.6 min 90%-40%B, 0.6–1.2 min 40%B, 1.2–1.21 min 40-90%B, 1.21–1.5 min 90%B. The injection volume was 5 µL. The QTRAP® 6500 + was operated in positive mode, multiple reaction monitoring (MRM) in unit resolution for Q1 and Q3. For detection of PEG-car, three transitions were set with a Q1 mass of 776.4, and Q3 masses of 109.9 (Collision Energy (CE) 119), 126.8 (CE 51), 707.2 (CE 38). For L-carnosine, four transitions were set with a Q1 mass of 227.3, and Q3 masses of 83.1 (CE 53), 110.0(CE 31), 156.2(CE 21), 210.2(CE 16). Pharmacokinetic parameters were calculated by noncompartmental analysis using a sparse sampling and naïve pooled approach (Phoenix WinNonLin 7.0, Certara, Mountain View, CA, USA).
# [2] = Pharmacokinetics in kidney of mice after single intravenous injection (LC-MS/MS); type: in vivo, C57BL/6J mice; conditions: for AUC: 0 to 240 min sampling; for half-life: 1000 mg/kg i.v. single injection, noncompartmental, naive pooled
# Method: as §1, §2, §3
# [3] = target: T1, carnosinase-1 (recombinant Human CN-1) (Homo sapiens, UniProt Q96KN2); test: Enzymatic hydrolysis by carnosinase-1 (histidine release, fluorometric assay); type: biochemical; conditions: for Fluorescence (proportional to histidine release) on incubation with recombinant CN-1: 1 mM substrate, Tris/HCl 50 mM pH 7.5, 30 °C, 5-80 min, Fig. 3; for Hydrolysis in human serum: as worded in the abstract: human serum
# T1 construct: purchased Novoprotein Company, Suzhou, China
# T1 sequence (Q96KN2 26-507): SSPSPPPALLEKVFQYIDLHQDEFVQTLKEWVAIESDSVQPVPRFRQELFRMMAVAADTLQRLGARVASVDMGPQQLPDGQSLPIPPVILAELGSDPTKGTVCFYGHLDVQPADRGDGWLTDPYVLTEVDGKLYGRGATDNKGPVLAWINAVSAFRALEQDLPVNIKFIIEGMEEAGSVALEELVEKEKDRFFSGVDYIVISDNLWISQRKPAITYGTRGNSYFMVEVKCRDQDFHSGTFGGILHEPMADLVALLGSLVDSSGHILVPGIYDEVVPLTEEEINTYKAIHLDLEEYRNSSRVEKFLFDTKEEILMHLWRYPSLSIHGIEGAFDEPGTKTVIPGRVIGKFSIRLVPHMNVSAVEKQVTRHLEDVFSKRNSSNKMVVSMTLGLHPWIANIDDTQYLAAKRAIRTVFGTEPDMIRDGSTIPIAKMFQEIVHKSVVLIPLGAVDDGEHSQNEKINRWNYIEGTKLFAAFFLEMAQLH
# Method: The resistance of the PEG-car to the enzymatic hydrolysis by carnosinase-1 was assayed by a previously designed enzymatic activity test (Lenney et al. [1982]). Briefly, PEG, PEG-car and L-carnosine (1 mM) respectively were incubated in Tris/HCl buffer (50 mM, pH 7.5) at 30 °C with carnosinase-1 (recombinant Human CN-1, Novoprotein Company, Suzhou, China). Aliquots of each sample taken after 5, 10, 20, 30, 40, 60, 80 min, and the enzymatic reaction was stopped by addition of 50 µL of 1% trichloroacetic acid (TCA). After addition of 50 µL of 5 mg/mL o-pthaldialdehyde dissolved in 2 M NaOH and incubation for 30 min at 30 °C, the amount of liberated histidine was quantified by fluorometric assay conducted by a multifunctional enzyme marker reader.
# [4] = male, C57BL/6J, mouse, iv, read-out: Half-Life
# [5] = male, C57BL/6J, mouse, iv, 1000 mg/kg i.v., at 5 min
Molecule,"clearance ([1]; male, C57BL/6J, mouse, iv, 1000 mg/kg i.v.)","half-life [1, 4]","AUC ([1]; male, C57BL/6J, mouse, iv, 1000 mg/kg i.v., read-out: AUC (converted))","Cmax [1, 5]","Vd ([1]; male, C57BL/6J, mouse, iv, 1000 mg/kg i.v., read-out: Vss)",CL ([2]; 1000 mg/kg i.v.),Vss ([2]; 1000 mg/kg i.v.),AUC ([2]; 1000 mg/kg i.v.),"half-life [2, 4]","Cmax [2, 5]",Fluorescence (proportional to histidine release) on incubation with recombinant CN-1 [3],Hydrolysis in human serum [3],CL ([1]; 1000 mg/kg i.v.),Vss ([1]; 1000 mg/kg i.v.),half-life [1],AUC ([1]; 1000 mg/kg i.v.),"Cmax (5 min) ([1]; 1000 mg/kg i.v., at 5 min)",half-life [2],"Cmax (5 min) ([2]; 1000 mg/kg i.v., at 5 min)",Inhibition of CN-1 activity ([3]; mixture of PEG-car with L-carnosine incubated with recombinant CN-1)
"NCCC(=O)N[C@@H](Cc1cnc[nH]1)C(=O)O [L-carnosine, reference compound]",15.4 mL/min/kg,1.03 h,1080 µg·h/mL,2860 µg/mL,0.606 L/kg,1.59^d g/min/kg,208^e g/kg,"518,040^c ng/mg tissue·min",1.75 h,5.91e+06 ng/g,fluorescence increased with time,rapidly hydrolyzed,,,,,,,,
mPEG-carnosine,,,,,,3.47^d* g/min/kg,830^e* g/kg,"173,340^c* ng/mg tissue·min",,,approximately six times lower than that of the carnosine sample,highly resistant to hydrolysis,14.84 mL/min/kg,294* mL/kg,0.533 h,"67,730 µg/mL·min",2671 µg/mL,168* min,3899^b* ng/mg tissue,the activity of CN-1 cannot be inhibited by PEG-car

# From PMC11222247, “PEGylation renders carnosine resistant to hydrolysis by serum carnosinase and increases renal carnosine levels” (Amino Acids, 2024)
